# Columns and labels:
# [1] = system: OPG production in FHs 74 Int cells, ATCC CCL 241; experiment: Production of OPG in FHs 74 Int cell culture supernatant, Western Blotting; assay type: cell-based, human; details: 2-day culture with saccharide (1 mg/ml; α,α-trehalose 1, 0.2, 0.04 mg/ml), control without saccharide = 100
# Description: FHs 74 Int cells, ATCC CCL 241, were inoculated to 96-well plates, with D-MEM medium prepared by adding fetal calf serum, commercialized by GIBCO Bethesda Research Laboratories, Bethesda, Md., USA, to the serum-free culture medium shown in Table 1 below to give a final concentration of 10% (v/v), a final cell density of 1.2×10^4 cells/well, and a final volume of 200 μl; and incubated at 37° C. for 48 hours in a 5% CO2 (V/V) incubator. After completion of the culture, the resultant cells were washed thrice (200 μl×3) with the serum-free D-MEM medium in Table 1. […] Two hundred microliters of each of the saccharide solutions of Nos.1 to 7 were placed in each well of the 96-well plates with the cells, and the cells were incubated at 37 C for two days in a 5% CO2 (v/v) incubator. The culture supernatant in each well was sampled and assayed for the production level of OPG by the Western Blotting method as indicated below using a recombinant human OPG commercialized by R & D Systems Inc., MN, USA. In parallel, a cell culture system with no saccharide, as a control group, was provided and cultured, and the supernatant of the cell culture was sampled on day 2 after the initiation of the cell culture and assayed for the production level of OPG similarly as in the test group.
# Fifteen microliters of any of the cell culture supernatants of the test solutions and the control solution, and five microliters of dithiothreitol (DTT) solution for cell treatment were mixed and heated at 99° C. for five minutes. Each of the resulting solutions with heat treatment was developed on SDS-polyacrylamide gel electrophoresis (SDS-PAGE) using multi-gel 4/20 commercialized by Daiichi Pure Chemicals Co., Ltd., Tokyo, Japan; and the gels were transferred to PVDF membranes commercialized by Nihon Millipore Corporation, Tokyo, Japan. The resulting PVDF membranes were blocked with a solution of “BLOCK ACE™”, commercialized by Dainippon Pharmaceutical Co., Ltd., Tokyo, Japan, and contacted with an anti-human OPG antibody as a primary antibody, commercialized by R & D Systems, MN, USA, and an HRP anti-goat IgG antibody, as a secondary antibody, commercialized by Sigma Chemical Co., MO, USA; followed by detecting proteins reacted with these antibodies in accordance with the method described in Experimental Medicine, special edition, titled Handbook for novel recombinant technology, pp. 222-226 (1999). The coloration was effected by using ECL reagent, commercialized by Amersham Pharmacia Biotechnology, IL, USA; exposing “[sequence] ECL™”; and measuring the expression intensity by using “IMAGE MASTER™”, commercialized by Amersham Biosciences, Tokyo, Japan.
# [2] = system: OPG production in MG-63 cells, ATCC CRL 1427; experiment: Screening for control of the production of OPG in MG-63 cells; assay type: cell-based, human; details: saccharide solutions Nos. 1 to 7, 2-day culture
# ddy mice = details: 15 g/kg body weight, by syringe or intubationally with stomach sonde, observed seven days
# Description: Either of the sterilized saccharide solutions was administered with a syringe or intubationally administered with a stomach sonde to five groups of ddy mice, having 20 to 25 g body weight, consisting of five heads in each group. The mice were observed their conditions for seven days.
# OPG = experiment: Administration test in healthy volunteers, blood OPG by ELISA; assay type: in vivo, human; details: for production level of OPG in blood: 100 ml of 10% (w/v) solution orally after fasting, blood at six hours, ELISA
# Description: Eighteen healthy volunteers, aged 35 to 50-years-old, were divided into three groups A, B, and C, consisting of three males and three females in each group. […] As a control solution, 1,000 ml of deionized water were sterilized with a membrane filter. These test and control solutions were stored at about 10° C. in a refrigerator until initiating the test. The volunteers in the groups A to C were allowed to fast, except for water, from 10 p.m. at night just before initiating the test, and 100 ml aliquots of the test solution 1, the test solution 2, and the control solution were administered to the groups A, B, and C, respectively, at 6 a.m. on the next day. Thereafter, all the volunteers were allowed to stay indoors calmly and sampled their blood at six hours after the administrations. The sampled bloods were centrifuged at […] for 10 min and quantified for OPG with “RS000805”, a product code number for ELISA system for assaying OPG commercialized by Funakoshi Co., Ltd., Tokyo. Japan.
SMILES,expression intensity of OPG versus control cell culture system [1],production of OPG compared with a control culture system free of saccharide [2],mortality (ddy mice),production level of OPG in blood (OPG; healthy volunteers),"complaints of abnormality after administration (OPG; human, in vivo, po)","complaints of abnormality after administration (OPG; healthy volunteers, 100 ml of 10% (w/v) solution orally)"
OC[C@H]1O[C@H](O[C@H]2[C@H](O)[C@@H](O)C(O)O[C@@H]2CO)[C@H](O)[C@@H](O)[C@@H]1O (mixture of isomers) [maltose],lower than that for the control cell culture system,remarkably inhibited the production of OPG,–,–,–,–
O=C[C@H](O)[C@@H](O)[C@H](O)[C@H](O)CO [D-glucose],lower than that for the control cell culture system,remarkably inhibited the production of OPG,no mouse died,significantly lower production level of OPG than that of the group C with the control solution,no volunteer,–
OC[C@H]1O[C@@](CO)(O[C@H]2O[C@H](CO)[C@@H](O)[C@H](O)[C@H]2O)[C@@H](O)[C@@H]1O [sucrose],lower than that for the control cell culture system,remarkably inhibited the production of OPG,no mouse died,–,–,–
"OC[C@H]1O[C@H](O[C@H]2O[C@H](CO)[C@@H](O)[C@H](O)[C@H]2O)[C@H](O)[C@@H](O)[C@@H]1O [α,α-trehalose]",higher than that for the control cell culture system,distinctly enhanced the production of OPG,no mouse died,significantly higher than those with the test solution 2 and the control solution,–,no volunteer

# — patent publication US20050054585A1, “Agent controlling the production of osteoclast formation regulator and method of screening substance capable of controlling the production of osteoclast formation regulator” (priority 2001, published 2005)
